Source: paper PMC2954893, “MHC Class I Bound to an Immunodominant Theileria parva Epitope Demonstrates Unconventional Presentation to T Cell Receptors” (PLoS Pathogens, 2010)

How the values were obtained:
[1] = system: N*01301; test: RMA-S MHC stabilization assay (peptide binding, pBL50); design: species or system cattle; conditions: RMA-S cells transfected with N*01301; peptides 0.1 nM to 1 mM; surface N*01301 detected with mAb IL-A88 by flow; reference peptide TIMPKDIQL
Experimental: A 9mer self-peptide (TIMPKDIQL) shown to have a high binding affinity to N*01301 was used throughout as a positive control in flow-based MHC stabilization assays (see Materials and Methods for details). In order to systematically explore the relative contribution to binding affinity made by amino acids at each position, a sequential alanine-scan of the self-peptide was made (Fig. 1A). Dose/FI curves were created for each peptide (using peptides at concentrations between 0.1 nM and 1 mM) and presented as semi-logarithmic plots as in previous studies ([25], supporting information (SI) Fig. S1). The high binders have low half-maximal binding level (BL50) values (high pBL50) and the low binders have high BL50 values (low pBL50). […]
RMA-S is a mouse lymphoma cell line with a deficiency in MHC class I antigen processing which has been used extensively to study binding of peptides to MHC class I [37]. […] Results are expressed as fluorescence index (FI) values. These were calculated as the test mean fluorescence intensity (MFI) minus the no-peptide isotype control MFI divided by the no-peptide N*01301-stained control MFI minus the no-peptide isotype control MFI. The half-maximal binding level (BL50), which is the peptide concentration yielding the half-maximal FI of the reference peptide in each assay, was calculated and presented as pBL50 (–logBL50). […]

[2] = system: responding T cells; conditions: T. parva-immune A18-homozygous animals; cited from earlier work
Text: Several CD8^+ T cell epitopes in T. parva have been identified recently, [17], [18]. […] This allele is expressed alone on the haplotype designated A18, which is common in the British Friesian breed. Although this is not the only single gene class I MHC haplotype in cattle, it remains an unu ...

[3] = system: Tp1_214–224-specific CD8+ T cell clones; test: 4-hour 111Indium release cytotoxicity assay with peptide-pulsed target cells; type: cell-based, cattle; conditions: 22 CD8+ T cell clones; example in Fig S6
Text: Twenty-two Tp1_214–224-specific CD8^+ T cell clones, derived from 2 T. parva-immune animals (641 and 633), were examined for their ability to recognize a series of Ala-substituted versions of Tp1_214–224 (as detailed in Fig 1), using a cytotoxicity assay. All clones gave near maximal levels of killing of cells pulsed with the native peptide (ranging from 21% to 100% for different clones) down to a concentration of 10 pg/ml (example shown in Fig S6). The results obtained with the Ala-substituted peptides tested at 1 ng/ml (i.e. well above the minimal concentration required to obtain maximal killing), are summarized in Fig 5. The most striking finding was the abolition (or near abolition) of recognition by all T cell clones of 2 or more of the peptides substituted at positions 6–9. Based on major effects on recognition of peptides substituted at positions 6, 7 and 8, the 22 clones fell into 4 groups each with broadly similar specificity. Nine clones were profoundly influenced by residues 6 and 8, seven clones by residues 7 and 8, four clones by residue 7 and two clones by residue 8. […] Substitutions at positions 3 and 4 also had substantial effects on recognition by some clones.
Figure 5 Effects of single alanine substitutions in the Tp1_214–224 epitope on recognition by specific CD8^+ T cell clones. […]

In the case of TIMPKDIQL, the “binding to N*01301 (pBL50 class)” value [1] was “high (for high binding >5 (BL50 <10^−5))”.

In the case of VGYPKVKEEML [Tp1_214–224], the “share of responding T cells specific for the peptide” value [2] is listed as “over 75%” and the “peptide concentration down to which all clones gave near maximal killing” value [3] is listed as 10 pg/mL.
